From US20160015703A1, “NANO- MIC[…] FOR […] OF AN ACTIVE INGREDIENT” (Danmarks Tekniske Universitet, priority 2013, published 2016) come the findings set out here.

This data set is described as follows: in vitro. Particulars: human.

The term Papp denotes the rate of passage across a membrane or cell layer, normalised by area and donor concentration.

For the compound `CN1CCCC1c1cccnc1` (stereo not shown) [HBSS with nicotine, nicotine], the Papp is 8.5 ×10⁻⁶ cm/s.
